# Measured values taken from ChEMBL document CHEMBL3271967, “Evidence for separate peptide sequences related to the lipolytic and magnesium-accumulating activities of ACTH. Analogy with adrenergic receptors” (J Med Chem, 1977).
# The source made the active and inactive calls. The calls are words filed in the database; no cut-off is given here. Residues, ends and D or L forms follow the SMILES beside them.
# What was measured:
# [1] = organism: Rattus norvegicus; experiment: Induction of magnesium accumulation in rat adipocyte plasma membrane vesicles assessed as increase of magnesium level per gram of protein per 30 mins at 2 x 10^-4 M by fluorescence assay; assay type: functional, cell membranes
# [2] = organism: Rattus norvegicus; experiment: Induction of magnesium accumulation in rat adipocyte plasma membrane vesicles assessed as increase of intravesicular magnesium level per 30 mins at 2 x 10^-4 M by fluorescence assay; assay type: functional, cell membranes
# [3] = organism: Rattus norvegicus; experiment: Induction of magnesium accumulation in rat adipocyte plasma membrane vesicles assessed as increase of magnesium level per gram of protein per 30 mins at 5 x 10^-8 M by fluorescence assay; assay type: functional, cell membranes
# [4] = organism: Rattus norvegicus; experiment: Induction of magnesium accumulation in rat adipocyte plasma membrane vesicles assessed as increase of intravesicular magnesium level per 30 mins at 5 x 10^-8 M by fluorescence assay; assay type: functional, cell membranes
# [5] = tested on: Lipid bilayer; experiment: Lipolytic activity in isolated rat adipocytes assessed as fatty acid release at 0.5 to 100 nmol/ml
# [6] = organism: Rattus norvegicus; experiment: Induction of magnesium accumulation in rat adipocyte plasma membrane vesicles assessed as increase of magnesium level per gram of protein per 30 mins at 1 x 10^-5 M by fluorescence assay in presence of beta-adrenergic antagonist propranolol; assay type: functional, cell membranes
# [7] = organism: Rattus norvegicus; experiment: Induction of magnesium accumulation in rat adipocyte plasma membrane vesicles assessed as increase of intravesicular magnesium level per 30 mins at 1 x 10^-5 M by fluorescence assay in presence of alpha-adrenergic antagonist phentolamine; assay type: functional, cell membranes
# [8] = organism: Rattus norvegicus; experiment: Induction of magnesium accumulation in rat adipocyte plasma membrane vesicles assessed as increase of magnesium level per gram of protein per 30 mins at 1 x 10^-5 M by fluorescence assay in presence of alpha-adrenergic antagonist phentolamine; assay type: functional, cell membranes
# [9] = organism: Rattus norvegicus; experiment: Induction of magnesium accumulation in rat adipocyte plasma membrane vesicles assessed as increase of intravesicular magnesium level per 30 mins at 1 x 10^-5 M by fluorescence assay; assay type: functional, cell membranes
# [10] = organism: Rattus norvegicus; experiment: Induction of magnesium accumulation in rat adipocyte plasma membrane vesicles assessed as increase of intravesicular magnesium level per 30 mins at 1 x 10^-5 M by fluorescence assay in presence of beta-adrenergic antagonist propranolol; assay type: functional, cell membranes
# [11] = organism: Rattus norvegicus; experiment: Induction of magnesium accumulation in rat adipocyte plasma membrane vesicles assessed as increase of magnesium level per gram of protein per 30 mins at 1 x 10^-5 M by fluorescence assay; assay type: functional, cell membranes
SMILES,Activity [3],Activity [4],Activity [5],Activity [9],Activity [11],also measured
COc1ccc(OC)c(C(O)C(C)N)c1 (stereo not drawn),,,,,,Activity [1]: 11.1 µmol; Activity [2]: 1.07 mM
CSCC[C@H](NC(=O)[C@H](CO)NC(=O)[C@H](Cc1ccc(O)cc1)NC(=O)[C@@H](N)CO)C(=O)N[C@@H](CCC(=O)O)C(=O)N[C@@H](Cc1cnc[nH]1)C(=O)N[C@@H](Cc1ccccc1)C(=O)N[C@@H](CCCNC(=N)N)C(=O)N[C@@H](Cc1c[nH]c2ccccc12)C(=O)NCC(=O)N[C@@H](CCCCN)C(=O)N1CCC[C@H]1C(=O)N[C@H](C(=O)NCC(=O)N[C@@H](CCCCN)C(=O)N[C@@H](CCCCN)C(=O)N[C@@H](CCCNC(=N)N)C(=O)N[C@@H](CCCNC(=N)N)C(=O)N1CCC[C@H]1C(=O)N[C@H](C(=O)N[C@@H](CCCCN)C(=O)N[C@H](C(=O)N[C@@H](Cc1ccc(O)cc1)C(=O)N1CCC[C@H]1C(=O)N[C@@H](CC(N)=O)C(=O)NCC(=O)N[C@@H](C)C(=O)N[C@@H](CCC(=O)O)C(=O)N[C@@H](CC(=O)O)C(=O)N[C@@H](CCC(=O)O)C(=O)N[C@@H](CC(C)C)C(=O)N[C@@H](C)C(=O)N[C@@H](CCC(=O)O)C(=O)N[C@@H](C)C(=O)N[C@@H](Cc1ccccc1)C(=O)N1CCC[C@H]1C(=O)N[C@@H](CC(C)C)C(=O)N[C@@H](CCC(=O)O)C(=O)N[C@@H](Cc1ccccc1)C(=O)O)C(C)C)C(C)C)C(C)C (H-SYSMEHFRWGKPVGKKRRPVKVYPNGAEDELAEAFPLEF-OH),9.78 µmol,0.94 mM,,,,
CSCC[C@H](NC(=O)[C@H](CO)NC(=O)[C@H](Cc1ccc(O)cc1)NC(=O)[C@@H](N)CO)C(=O)N[C@@H](CCC(=O)O)C(=O)N[C@@H](Cc1cnc[nH]1)C(=O)N[C@@H](Cc1ccccc1)C(=O)N[C@@H](CCCNC(=N)N)C(=O)N[C@@H](Cc1c[nH]c2ccccc12)C(=O)NCC(=O)N[C@@H](CCCCN)C(=O)N1CCC[C@H]1C(=O)N[C@H](C(=O)NCC(=O)N[C@@H](CCCCN)C(=O)N[C@@H](CCCCN)C(=O)N[C@@H](CCCNC(=N)N)C(=O)N[C@@H](CCCNC(=N)N)C(=O)N1CCC[C@H]1C(=O)N[C@H](C(=O)O)C(C)C)C(C)C (H-SYSMEHFRWGKPVGKKRRPV-OH),3.74 µmol,0.36 mM,Active,,,
NC[C@H](O)c1ccc(O)c(O)c1,,,,1.3 mM,13.5 µmol,Activity [6]: 8.84 µmol; Activity [7]: 0.37 mM; Activity [8]: 3.85 µmol; Activity [10]: 0.85 mM
CC(C)NCC(O)c1ccc(O)c(O)c1 (stereo not drawn),,,,0.3 mM,3.12 µmol,
CC(C)[C@H](NC(=O)[C@H](CCCCN)NC(=O)[C@@H](NC(=O)[C@@H]1CCCN1C(=O)[C@H](CCCNC(=N)N)NC(=O)[C@H](CCCNC(=N)N)NC(=O)[C@H](CCCCN)NC(=O)[C@H](CCCCN)NC(=O)CNC(=O)[C@@H](NC(=O)[C@@H]1CCCN1C(=O)[C@@H](N)CCCCN)C(C)C)C(C)C)C(=O)N[C@@H](Cc1ccc(O)cc1)C(=O)N1CCC[C@H]1C(=O)O (H-KPVGKKRRPVKVYP-OH),8.32 µmol,0.8 mM,inactive,,,
